Source: BindingDB's records for doi:10.7270/Q2TX3CTT (Broad Institute, 2010)
pEC50: −log10 of the molar value.

Target: Glycogen synthase kinase-3 beta (Homo sapiens, UniProt P49841)
Assay: concentration-response blocking of human GSK3B – biochemical, luminescence, cell-free homogeneous, retest, dose response (AID 434954)

Glycogen synthase kinase-3 beta, sequence (P49841 whole entry): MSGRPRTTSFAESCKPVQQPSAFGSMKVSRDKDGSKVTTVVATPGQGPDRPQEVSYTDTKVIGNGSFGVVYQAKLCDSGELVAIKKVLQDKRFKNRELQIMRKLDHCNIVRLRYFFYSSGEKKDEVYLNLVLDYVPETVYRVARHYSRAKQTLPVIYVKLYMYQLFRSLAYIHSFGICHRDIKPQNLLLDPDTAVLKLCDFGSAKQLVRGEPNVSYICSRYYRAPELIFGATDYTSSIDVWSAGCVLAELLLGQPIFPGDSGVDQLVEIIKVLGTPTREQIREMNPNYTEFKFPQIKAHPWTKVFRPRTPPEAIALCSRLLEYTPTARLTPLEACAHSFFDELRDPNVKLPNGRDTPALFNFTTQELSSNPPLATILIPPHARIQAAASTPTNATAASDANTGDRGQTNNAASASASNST

Row | Structure (SMILES) | pEC50
1 | Cc1c(C(=O)O)sc2ncnc(N3CCCCC3C)c12 (centres undefined) [5-methyl-4-(2-methyl-1-piperidinyl)thieno[2,3-d]pyrimidine-6-carboxylic acid] | < 3.52
2 | CCN1CCN(c2ccc(S(=O)(=O)N3CCOCC3)cc2NC(=O)c2ccc(Cl)cc2Cl)CC1 [2,4-bis(chloranyl)-N-[2-(4-ethylpiperazin-1-yl)-5-morpholin-4-ylsulfonyl-phenyl]benzamide] | < 3.52
3 | CC1CCCCC1NS(=O)(=O)c1ccc2c(c1)CC(=O)N2C (centres undefined) | < 3.52
4 | O=C(Nc1ccccc1)ON=C1c2ccccc2-c2ccccc21 [9H-fluoren-9-one O-(anilinocarbonyl)oxime] | < 3.52
5 | CC1(C)CC(=O)C=C(Nc2ccccc2O)C1 [3-[(2-hydroxyphenyl)amino]-5,5-dimethyl-cyclohex-2-en-1-one] | < 3.52
6 | COCCn1c(SCC(=O)Nc2nc(C)c(Cl)cc2Cl)nc2ccccc21 [N-[3,5-bis(chloranyl)-6-methyl-pyridin-2-yl]-2-[1-(2-methoxyethyl)benzimidazol-2-yl]sulfanyl-ethanamide] | < 3.52
7 | Fc1ccc(CSc2nnc(-c3ccco3)o2)cc1 | < 3.52
8 | Cc1ccc(N2CC(C(=O)Nc3c4c(nn3C(C)(C)C)CS(=O)(=O)C4)CC2=O)cc1 (centres undefined) [N-[2-tert-butyl-5,5-bis(oxidanylidene)-4,6-dihydrothieno[3,4-c]pyrazol-3-yl]-1-(4-methylphenyl)-5-oxidanylidene-pyrrolidine-3-carboxamide] | < 3.52
9 | COC(=O)c1nnn(-c2nonc2N)c1CSc1nc2ccccc2s1 [methyl 1-(4-amino-1,2,5-oxadiazol-3-yl)-5-(1,3-benzothiazol-2-ylsulfanylmethyl)triazole-4-carboxylate] | < 3.52
10 | CC(=O)NCC1COc2ccccc2O1 (centres undefined) [N-(2,3-dihydro-1,4-benzodioxin-3-ylmethyl)ethanamide] | < 3.52
11 | Cc1ccc(S(=O)(=O)NNC(=O)c2cccc(O)c2)cc1 [3-hydroxy-N'-(4-methylphenyl)sulfonylbenzohydrazide] | < 3.52
12 | O=C(NN=Cc1ccc2nccnc2c1)c1ccncc1 [N-(quinoxalin-6-ylmethylideneamino)pyridine-4-carboxamide] | < 3.52
13 | CCN1CCN(CCCNC(=O)c2ccc3c(c2)NC(=O)c2ccccc2S3)CC1 [N-[3-(4-ethylpiperazin-1-yl)propyl]-6-oxo-5H-benzo[b][1,4]benzothiazepine-3-carboxamide] | < 3.52
14 | CC(NCC1COc2ccccc2O1)C1COc2ccccc2O1 (centres undefined) | < 3.52
15 | COc1ccc(OC)c(Nc2nc(NCCC(C)C)nc(N)c2[N+](=O)[O-])c1 [4-N-(2,5-dimethoxyphenyl)-2-N-(3-methylbutyl)-5-nitropyrimidine-2,4,6-triamine] | < 3.52
16 | CNC(=O)c1ccccc1NC(=O)c1cccc(S(=O)(=O)N2CCC(C)CC2)c1 [N-methyl-2-({3-[(4-methylpiperidin-1-yl)sulfonyl]benzoyl}amino)benzamide] | < 3.52
17 | O=C(NCCc1ccccc1)c1cccc(Br)c1 | < 3.52
18 | Clc1nccc(NCc2ccccc2)n1 [N-benzyl-N-(2-chloropyrimidin-4-yl)amine] | < 3.52
19 | Cc1cccn2c(=O)nc(SCC(=O)NC3CCCCC3)nc12 | < 3.52
20 | CC(C)(C)C(=O)c1cnc(Nc2ccccc2)s1 [1-(2-anilino-1,3-thiazol-5-yl)-2,2-dimethylpropan-1-one] | < 3.52
21 | C=CCNc1nc(N)c([N+](=O)[O-])c(Nc2ccccc2OC)n1 [4-N-(2-methoxyphenyl)-5-nitro-2-N-prop-2-enylpyrimidine-2,4,6-triamine] | < 3.52
22 | C[C@@H]1O[C@@H](OC[C@H]2O[C@@H](Oc3c(-c4ccc(O)c(O)c4)oc4cc(O)cc(O)c4c3=O)[C@H](O)[C@@H](O)[C@@H]2O)[C@H](O)[C@H](O)[C@H]1O [3-Rhamnoglucosylquercetin] | 4.55
23 | COc1cccc(C(CC(=O)NCc2ccco2)NS(=O)(=O)c2ccc(C)cc2)c1OC (centres undefined) [3-(2,3-dimethoxyphenyl)-N-(2-furylmethyl)-3-{[(4-methylphenyl)sulfonyl]amino}propanamide] | < 3.52

Row | Structure (SMILES) | pEC50
24 | CN(C)c1ccc(C(=O)NN2C(=O)c3ccccc3C2=O)cc1 [4-(dimethylamino)-N-(1,3-dioxo-2-isoindolyl)benzamide] | < 3.52
25 | CCCc1nc2c([nH]1)c(=O)n(C)c(=O)n2C | < 3.52
26 | COc1cccc(-n2sc3c(c2=S)-c2cc(OC)ccc2NC3(C)C)c1 | < 3.52
27 | COCc1c(C(=O)NN=Cc2ccccn2)nnn1-c1nonc1N | < 3.52
28 | Cc1ccc(CSc2ccc3nnc(-c4ccccn4)n3n2)cc1 | < 3.52
29 | Cc1ccc2nc3c(cc2c1)c(NC(=O)C(C)(C)C)nn3CC(C)C [2,2-dimethyl-N-[6-methyl-1-(2-methylpropyl)pyrazolo[3,4-b]quinolin-3-yl]propanamide] | < 3.52
30 | O=c1c(O)c(-c2ccc(O)cc2)oc2cc(O)cc(O)c12 | 4.94
31 | Cc1ccnc(NC(=O)c2ccc([N+](=O)[O-])o2)c1 [5-nitro-N-(4-methyl-2-pyridinyl)-2-furamide] | < 3.52
32 | CC(=O)c1cccc(NC(=O)NN2CCN(C)CC2)c1 [1-(3-ethanoylphenyl)-3-(4-methylpiperazin-1-yl)urea] | < 3.52
33 | Cc1ccc(Nc2nc(NCC3CCCO3)nc(N)c2[N+](=O)[O-])cc1 (centres undefined) | 5.31
34 | CCc1ccc(CNC(=O)C2CCC(=O)N(CCc3ccc(Cl)cc3)C2)nc1 (centres undefined) [1-[2-(4-chlorophenyl)ethyl]-N-[(5-ethyl-2-pyridinyl)methyl]-6-oxo-3-piperidinecarboxamide] | < 3.52
35 | N=C(Cc1nc2ccccc2s1)NO [2-(1,3-benzothiazol-2-yl)-N'-oxidanyl-ethanimidamide] | < 3.52
36 | O=c1c(O)c(-c2ccc(O)c(O)c2)oc2cc(O)cc(O)c12 [2-(3,4-dihydroxyphenyl)-3,5,7-trihydroxy-chromone;hydrate] | 5.00
37 | CCCN(CCC)Cc1c(C(=O)NN=Cc2ccc(Br)cc2)nnn1-c1nonc1N [1-(4-azanyl-1,2,5-oxadiazol-3-yl)-N-[(4-bromophenyl)methylideneamino]-5-[(dipropylamino)methyl]-1,2,3-triazole-4-carboxamide] | < 3.52
38 | COc1ccc(Nc2nc(N)c(C(=O)c3ccc(OC)cc3)s2)cc1 [{4-amino-2-[(4-methoxyphenyl)amino]-1,3-thiazol-5-yl}(4-methoxyphenyl)methanone] | 6.50
39 | COc1cccc2cc(C(=O)CS(=O)(=O)c3ccc(Cl)cc3)c(=O)oc12 [3-[2-(4-chlorophenyl)sulfonylethanoyl]-8-methoxy-chromen-2-one] | < 3.52
40 | N#CCCn1cc(CN=O)c(-c2cccc([N+](=O)[O-])c2)n1 [3-[4-(hydroxyiminomethyl)-3-(3-nitrophenyl)pyrazol-1-yl]propanenitrile] | 4.30
41 | Cc1onc(-c2ccccc2)c1C(=O)n1cccn1 | < 3.52
42 | COc1ccc(NC(=O)Nc2ccccn2)cc1OC [N-(3,4-dimethoxyphenyl)-N'-2-pyridinylurea] | < 3.52
43 | CCOC(=O)CSc1ccc2nnc(CCNS(=O)(=O)c3ccccc3)n2n1 [ethyl [(3-{2-[(phenylsulfonyl)amino]ethyl}[1,2,4]triazolo[4,3-b]pyridazin-6-yl)thio]acetate] | < 3.52
44 | C=CCNc1nc(N)c([N+](=O)[O-])c(Nc2cccc(Cl)c2)n1 [N4-(3-chlorophenyl)-5-nitro-N2-prop-2-enyl-pyrimidine-2,4,6-triamine] | 4.93
45 | Cc1nn(-c2ccccn2)c2c1C(c1ccsc1)C1C(=O)CCCC1=N2 (centres undefined) [ethanol;3-methyl-1-(2-pyridinyl)-4-(3-thiophenyl)-4,6,7,8-tetrahydro-2H-pyrazolo[3,4-b]quinolin-5-one] | < 3.52
46 | CCOC(=O)CC(=O)CSc1ccc2nnc(-c3ccccc3)n2n1 [ethyl 3-oxo-4-[(3-phenyl[1,2,4]triazolo[4,3-b]pyridazin-6-yl)thio]butanoate] | < 3.52

Now from value to compound:

Row | pEC50 | Structure (SMILES)
47 | 5.17 | COc1ccc2c(c1)-c1c(ssc1=S)C(C)(C)N2 [SMR000116363]
48 | < 3.52 | O=C(Cc1sc(N2CCCCC2)nc1O)Nc1cccc(C(F)(F)F)c1 [MLS000570409]
49 | < 3.52 | Cc1cccc(NC(=O)CSc2nc(O)c(C#N)c(-c3ccccc3)n2)c1C [SMR000161905]
50 | < 3.52 | COc1ccc(Cl)cc1-c1nc(N)nc(NC2CCCCC2)n1 [MLS000698409]
51 | < 3.52 | O=C(CN(Cc1cccs1)C(=O)CCC(=O)Nc1nccs1)NCc1ccccc1 [MLS000551058]
52 | 4.75 | O=C(Nc1ncc(Cc2ccccc2)s1)C1CCCO1 (centres undefined) [MLS000100685]
53 | 5.13 | O=NCc1cn(CCC(=O)O)nc1-c1cccc([N+](=O)[O-])c1 [SMR000371064]
54 | < 3.52 | Cc1cc(C)c2nc(N(CCN(C)C)C(=O)c3ccc(S(=O)(=O)N(C)CC4CCCO4)cc3)sc2c1 (centres undefined) [MLS001239556]
55 | 4.90 | COc1ccc2oc3cc(C)[n+]([O-])c(-c4ccc(Cl)cc4)c3c2c1 [MLS000588178]
56 | < 3.52 | CCC(N=C(S)NC1CCCCC1)c1ccccc1 (centres undefined) [SMR000678367]
57 | < 3.52 | CCCn1nc(NC(=O)c2cccs2)c2cc3cc(C)ccc3nc21 [SMR000436650]
58 | < 3.52 | c1ccc(CSc2ccc3nnc(-c4cccnc4)n3n2)cc1 [MLS000724858]
59 | < 3.52 | COc1cccc(CCNC(=O)c2ccc(C#N)cc2)c1 [MLS000696427]
60 | < 3.52 | COCCn1c(SCC(=O)NC(C)c2ccccc2)nc2ccccc21 (centres undefined) [SMR000590006]
61 | < 3.52 | COc1ccc(C)cc1S(=O)(=O)Nc1cc2c3c(c1)CCN3C(=O)CC2 [SMR000812053]
62 | < 3.52 | CCOC(=O)Cc1csc(NC(=O)CSc2nc(-c3ccccc3)c(C#N)c(=O)[nH]2)n1 [MLS000690700]
63 | < 3.52 | O=C(COc1ccc2ccccc2c1)Nc1cccc2c1C(=O)NC2=O [MLS000375387]
64 | 4.79 | CCN1CCc2c(C#N)c(N3CCCCC3)nc(N3CCOCC3)c2C1 [MLS000071254]
65 | < 3.52 | CC(C)C(=O)NC(=S)Nc1ccc(S(=O)(=O)N2CCCC2)cc1 [SMR000231524]
66 | 4.97 | Cc1[nH]nc2c1C(c1cccs1)C1C(=O)CCCC1=N2 (centres undefined) [MLS001003570]
67 | < 3.52 | C=C1CSc2nc(=O)c3c4c(sc3n21)CCCC4 [MLS000108332]
68 | < 3.52 | CCCn1cc(SCC(=O)NCc2ccco2)c2ccccc21 [MLS000095681]
69 | < 3.52 | CC(N=O)c1ncc(C(F)(F)F)cc1Cl (centres undefined) [MLS000763457]
